Literature values as cited in patent US20170100411A1, “CORTICOSTEROID FORMULATIONS FOR MAINTAINING CORTICOSTEROID SYNOVIAL FLUID CONCENTRATIONS” (priority 2015, published 2017).

Columns and labels:
[1] = target: T1, glucocorticosteroid (GC) receptor (Homo sapiens, UniProt P04150)
T1 sequence (P04150 1-777): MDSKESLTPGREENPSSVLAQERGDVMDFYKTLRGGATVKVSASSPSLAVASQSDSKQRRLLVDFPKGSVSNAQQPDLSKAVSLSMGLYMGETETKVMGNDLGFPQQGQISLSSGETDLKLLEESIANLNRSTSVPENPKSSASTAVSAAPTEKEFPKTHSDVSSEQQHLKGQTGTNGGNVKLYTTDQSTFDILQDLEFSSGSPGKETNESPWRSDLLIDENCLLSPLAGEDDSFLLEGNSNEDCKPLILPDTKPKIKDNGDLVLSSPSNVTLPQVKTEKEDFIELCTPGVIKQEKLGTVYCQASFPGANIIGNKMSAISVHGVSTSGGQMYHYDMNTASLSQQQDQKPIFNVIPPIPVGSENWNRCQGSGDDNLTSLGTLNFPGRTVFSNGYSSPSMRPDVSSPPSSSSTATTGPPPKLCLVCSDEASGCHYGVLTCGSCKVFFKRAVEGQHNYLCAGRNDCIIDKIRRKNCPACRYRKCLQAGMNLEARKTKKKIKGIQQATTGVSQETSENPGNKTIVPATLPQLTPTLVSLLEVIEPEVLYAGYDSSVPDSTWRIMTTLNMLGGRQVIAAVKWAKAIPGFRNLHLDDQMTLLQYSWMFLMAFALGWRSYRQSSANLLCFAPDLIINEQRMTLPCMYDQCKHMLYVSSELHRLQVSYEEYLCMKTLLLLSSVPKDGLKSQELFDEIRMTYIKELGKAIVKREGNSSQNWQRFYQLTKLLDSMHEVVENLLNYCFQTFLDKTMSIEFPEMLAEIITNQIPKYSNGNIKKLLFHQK

HPA axis = details: BID administration of 20 mg

Compound	potency at the GC receptor relative to other corticosteroids such as TCA [1]	suppression of the HPA axis (published CCS %) (HPA axis)
CCC(=O)O[C@]1(C(=O)SCF)[C@H](C)C[C@H]2[C@@H]3C[C@H](F)C4=CC(=O)C=C[C@]4(C)[C@@]3(F)[C@@H](O)C[C@@]21C [fluticasone propionate]	approximately 20 fold	–
Methylprednisone	–	80-90%
